Laboratory results: patent US10961238B2, “Modulators of hedgehog (Hh) signaling pathway” (E-THERAPEUTICS PLC, priority 2016, dated 2021)

Test system: C3H10T1/2 cells
Experiment: C3H assay: differentiation of C3H10T1/2 cells by mSHH, measurement of alkaline phosphatase
Assay type: cell-based, mouse
Details: Mus musculus, C3H 10T1/2; C3H10T1/2 cells stimulated with mSHH for 72 hours; alkaline phosphatase activity; read-out: IC50 Ranges

Row | SMILES | IC50 [nM]
1 | CC(C)NC(=S)N1CC(S(=O)(=O)N2CCC(c3c[nH]c4ncccc34)CC2)C1 [Compound 179, N-propan-2-yl-3-[4-(1H-pyrrolo[2,3-b]pyridin-3-yl)piperidin-1-yl]sulfonylaze-tidine-1-carbo-thioamide] | 10 to 100
2 | COC1CCC(OC(=O)N2CC(S(=O)(=O)N3CCC(c4c[nH]c5ncccc45)CC3)C2)CC1 (centres unmarked) [Compound 180, (4-methoxycyclohexyl) 3-[4-(1H-pyrrolo[2,3-b]pyridin-3-yl)piperidin-1-yl]sulfonylaze-tidine-1-carboxylate] | 10 to 100
3 | O=S(=O)(C1CN(c2ncccc2C2CC2)C1)N1CCC(c2c[nH]c3ncccc23)CC1 [Compound 181, 3-[1-[1-(3-cyclopropylpy-ridin-2-yl)azetidin-3-yl]sulfonylpiper-idin-4-yl]-1H-pyrrolo[2,3-b]pyridine] | 10 to 100
4 | O=S(=O)(C1CN(c2ncccc2CO)C1)N1CCC(c2c[nH]c3ncccc23)CC1 [Compound 182, [2-[3-[4-(1H-pyrrolo[2,3-b]pyridin-3-yl)piperidin-1-yl]sulfonylaze-tidin-1-yl]pyridin-3-yl]methanol] | 10 to 100
5 | O=C(Oc1ccccc1O)N1CC(S(=O)(=O)N2CCC(c3c[nH]c4ncccc34)CC2)C1 [Compound 183, (2-hydroxyphenyl) 3-[4-(1H-pyrrolo[2,3-b]pyridin-3-yl)piperidin-1-yl]sulfonylaze-tidine-1-carboxylate] | 100 to 1000
6 | O=S(=O)(C1CN(c2nc(C(F)(F)F)ccc2C(F)(F)F)C1)N1CCC(c2c[nH]c3ncccc23)CC1 [Compound 184, 3-[1-[1-[3,6-bis(trifluoromethyl)pyridin-2-yl]azetidin-3-yl]sulfonylpiper-idin-4-yl]-1H-pyrrolo[2,3-b]pyridine] | 100 to 1000
7 | COc1ccc(C(F)(F)F)c(N2CC(S(=O)(=O)N3CCC(c4c[nH]c5ncccc45)CC3)C2)n1 [Compound 185, 3-[1-[1-[6-methoxy-3-(trifluoromethyl)pyridin-2-yl]azetidin-3-yl]sulfonylpiper-idin-4-yl]-1H-pyrrolo[2,3-b]pyridine] | 100 to 1000
8 | O=S(=O)(C1CN(c2ncccc2C(F)(F)F)C1)N1CCC(c2c[nH]c3ncccc23)CC1 [Compound 186, 3-[1-[1-[3-(trifluoromethyl)pyridin-2-yl]azetidin-3-yl]sulfonylpiper-idin-4-yl]-1H-pyrrolo [2,3-b]pyridine] | 100 to 1000
9 | Cc1ccnc(N2CC(S(=O)(=O)N3CCC(c4c[nH]c5ncccc45)CC3)C2)c1C#N [Compound 187, 4-methyl-2-[3-[4-(1H-pyrrolo[2,3-b]pyridin-3-yl)piperidin-1-yl]sulfonylaze-tidin-1-yl]pyridine-3-carbonitrile] | 100 to 1000
10 | O=C(C1CCCCC1)N1CC(S(=O)(=O)N2CCC(c3c[nH]c4ncccc34)CC2)C1 [Compound 189, Cyclohexyl-[3-[[4-(1H-pyrrolo[2,3-b]pyridin-3-yl)-1-piperidyl]sulfonyl]azetidin-1-yl]methanone] | 10 to 100
11 | O=C(C1CCCC1)N1CC(S(=O)(=O)N2CCC(c3c[nH]c4ncccc34)CC2)C1 [Compound 190, cyclopentyl-[3-[4-(1H-pyrrolo[2,3-b]pyridin-3-yl)piperidin-1-yl]sulfonylaze-tidin-1-yl]methanone] | 10 to 100
12 | O=C(C1CC1)N1CC(S(=O)(=O)N2CCC(c3c[nH]c4ncccc34)CC2)C1 [Compound 191, cyclopropyl-[3-[4-(1H-pyrrolo[2,3-b]pyridin-3-yl)piperidin-1-yl]sulfonylaze-tidin-1-yl]methanone] | 100 to 1000
13 | O=C(c1ccccn1)N1CC(S(=O)(=O)N2CCC(c3c[nH]c4ncccc34)CC2)C1 [Compound 192, pyridin-2-yl-[3-[4-(1H-pyrrolo[2,3-b]pyridin-3-yl)piperidin-1-yl]sulfonylaze-tidin-1-yl]methanone] | 100 to 1000
14 | O=C(c1cccs1)N1CC(S(=O)(=O)N2CCC(c3c[nH]c4ncccc34)CC2)C1 [Compound 193, [3-[4-(1H-pyrrolo[2,3-b]pyridin-3-yl)piperidin-1-yl]sulfonylaze-tidin-1-yl]-thiophen-2-ylmethanone] | 10 to 100
